Test: mn = molality of the nth substance listed, in mol/kg
Settings: 100 kPa, Liquid, Alternating current cell with electrodes

CCCCCCCCCC(=O)[O-].[Cs+] [cesium decanoate] + O
electrical conductivity [S/m]
Settings	278.15 K	288.15 K	298.15 K	308.15 K	318.15 K	328.15 K
m1 = 0.00805	0.0479	0.0614	0.0757	0.091	0.107	0.123
m1 = 0.01759	0.101	0.13	0.161	0.193	0.227	0.261
m1 = 0.0274	0.151	0.197	0.241	0.29	0.342	0.396
m1 = 0.03769	0.207	0.261	0.323	0.39	0.46	0.533
m1 = 0.04818	0.261	0.327	0.404	0.487	0.575	0.667
m1 = 0.06109	0.316	0.405	0.502	0.604	0.713	0.824
m1 = 0.0725	0.3714	0.476	0.588	0.707	0.829	0.958
m1 = 0.08819	0.4405	0.564	0.696	0.835	0.988	1.147
m1 = 0.1027	0.5001	0.639	0.7914	0.954	1.121	1.3
m1 = 0.1172	0.554	0.715	0.883	1.06	1.24	1.44
m1 = 0.1325	0.6113	0.79	0.965	1.16	1.36	1.58
m1 = 0.153	0.697	0.875	1.07	1.28	1.514	1.76
m1 = 0.1705	0.7509	0.944	1.16	1.39	1.642	1.914
m1 = 0.1873	0.799	1.009	1.241	1.49	1.77	2.06
m1 = 0.2051	0.8512	1.08	1.33	1.604	1.9	2.211
m1 = 0.2256	0.914	1.16	1.438	1.735	2.05	2.39
m1 = 0.2463	0.976	1.25	1.542	1.86	2.207	2.57

CCCCCCCCCC(=O)[O-].[K+] [potassium decanoate] + O
Settings	electrical conductivity [S/m]
288.15 K, m1 = 0.00932	0.0666
288.15 K, m1 = 0.01855	0.13
288.15 K, m1 = 0.02771	0.19
288.15 K, m1 = 0.03678	0.247
288.15 K, m1 = 0.04578	0.303
288.15 K, m1 = 0.0547	0.358
288.15 K, m1 = 0.06355	0.411
288.15 K, m1 = 0.07232	0.462
288.15 K, m1 = 0.08102	0.511
288.15 K, m1 = 0.08964	0.5603
288.15 K, m1 = 0.09819	0.608
288.15 K, m1 = 0.1067	0.654
288.15 K, m1 = 0.1151	0.698
288.15 K, m1 = 0.1234	0.738
288.15 K, m1 = 0.1317	0.771
288.15 K, m1 = 0.1399	0.8021
288.15 K, m1 = 0.148	0.8314
288.15 K, m1 = 0.1561	0.86
288.15 K, m1 = 0.1641	0.888
288.15 K, m1 = 0.1721	0.915
288.15 K, m1 = 0.1799	0.943
288.15 K, m1 = 0.1878	0.9704
298.15 K, m1 = 0.00998	0.0875
298.15 K, m1 = 0.01987	0.172
298.15 K, m1 = 0.02967	0.251
298.15 K, m1 = 0.03939	0.328
298.15 K, m1 = 0.04902	0.402
298.15 K, m1 = 0.05856	0.474
298.15 K, m1 = 0.06803	0.545
298.15 K, m1 = 0.07741	0.613
298.15 K, m1 = 0.08671	0.679
298.15 K, m1 = 0.09593	0.743
298.15 K, m1 = 0.1051	0.802
298.15 K, m1 = 0.1141	0.858
298.15 K, m1 = 0.1231	0.905
298.15 K, m1 = 0.1321	0.949
298.15 K, m1 = 0.1409	0.99
298.15 K, m1 = 0.1497	1.03
298.15 K, m1 = 0.1583	1.07
298.15 K, m1 = 0.167	1.108
298.15 K, m1 = 0.1755	1.147
298.15 K, m1 = 0.184	1.19
298.15 K, m1 = 0.1924	1.224
298.15 K, m1 = 0.2008	1.26
298.15 K, m1 = 0.209	1.301
308.15 K, m1 = 0.00952	0.101
308.15 K, m1 = 0.01895	0.198
308.15 K, m1 = 0.0283	0.29
308.15 K, m1 = 0.03758	0.379
308.15 K, m1 = 0.04677	0.465
308.15 K, m1 = 0.05588	0.549
308.15 K, m1 = 0.06492	0.631
308.15 K, m1 = 0.07388	0.71
308.15 K, m1 = 0.08277	0.785
308.15 K, m1 = 0.09158	0.8601
308.15 K, m1 = 0.1003	0.931
308.15 K, m1 = 0.109	0.996
308.15 K, m1 = 0.1176	1.05
308.15 K, m1 = 0.1261	1.104
308.15 K, m1 = 0.1346	1.15
308.15 K, m1 = 0.1429	1.201
308.15 K, m1 = 0.1512	1.25
308.15 K, m1 = 0.1595	1.29
308.15 K, m1 = 0.1677	1.342
308.15 K, m1 = 0.1758	1.39
308.15 K, m1 = 0.1838	1.434
308.15 K, m1 = 0.1918	1.48
308.15 K, m1 = 0.1997	1.525
318.15 K, m1 = 0.0099	0.125
318.15 K, m1 = 0.01971	0.243
318.15 K, m1 = 0.02944	0.356
318.15 K, m1 = 0.03908	0.465
318.15 K, m1 = 0.04864	0.571
318.15 K, m1 = 0.05811	0.673
318.15 K, m1 = 0.0675	0.771
318.15 K, m1 = 0.07682	0.867
318.15 K, m1 = 0.08605	0.962
318.15 K, m1 = 0.0952	1.05
318.15 K, m1 = 0.1043	1.135
318.15 K, m1 = 0.1133	1.21
318.15 K, m1 = 0.1222	1.28
318.15 K, m1 = 0.131	1.342
318.15 K, m1 = 0.1398	1.404
318.15 K, m1 = 0.1485	1.46
318.15 K, m1 = 0.1571	1.524
318.15 K, m1 = 0.1657	1.58
318.15 K, m1 = 0.1742	1.641
318.15 K, m1 = 0.1826	1.7
318.15 K, m1 = 0.1909	1.76
318.15 K, m1 = 0.1992	1.815
318.15 K, m1 = 0.2074	1.87
328.15 K, m1 = 0.00972	0.143
328.15 K, m1 = 0.01937	0.279
328.15 K, m1 = 0.02892	0.408
328.15 K, m1 = 0.0384	0.533
328.15 K, m1 = 0.0478	0.654
328.15 K, m1 = 0.05712	0.769
328.15 K, m1 = 0.06636	0.883
328.15 K, m1 = 0.07552	0.994
328.15 K, m1 = 0.08461	1.103
328.15 K, m1 = 0.09362	1.207
328.15 K, m1 = 0.1026	1.305
328.15 K, m1 = 0.1114	1.4
328.15 K, m1 = 0.1202	1.48
328.15 K, m1 = 0.1289	1.55
328.15 K, m1 = 0.1376	1.627
328.15 K, m1 = 0.1462	1.7
328.15 K, m1 = 0.1547	1.77
328.15 K, m1 = 0.1631	1.836
328.15 K, m1 = 0.1715	1.904
328.15 K, m1 = 0.1798	1.97
328.15 K, m1 = 0.188	2.038
328.15 K, m1 = 0.1962	2.106
328.15 K, m1 = 0.2043	2.17
